Series [1] can be described thus: Ocular comfort, composite behaviour score after ocular instillation. Format: in vivo, rabbit. The following applies: 4 mM, two drops to right eye, evaluated for 15 minutes; FIGS. 1 and 2. Here is the method: The desired compound at a concentration of 4 mM in a formulation of 10 mM phosphate, 1% polysorbate 80, 0.85% NaCl, 0.02% BAC, 0.2% EDTA pH 7.0 was administered as two 30 µl drops to the right eye of each rabbit within a dosing group. The rabbits were evaluated for 15 minutes after ocular instillation and their changes in behavior were recorded. […] The higher the score, the more discomfort an animal senses. A mean ±SE was generated for each group and depicted in FIGS. 1 and 2.

The next series deals with T1, ROCK1 (Homo sapiens, UniProt Q13464).
T1 construct: purchased Upstate/Chemicon 14-601
As to the kind of experiment: Rho kinase inhibition assay (IMAP fluorescence polarization), ROCK1. Format: biochemical. To be noted: 10 μM ATP, 60 min at room temperature; read-out: ROCK1 IC50. Here is the method:
Following the pre-incubation, 10 μM ATP was added to initiate the reaction. After 60 minutes at room temperature, Molecular Devices IMAP™ binding solution was added to bind phosphorylated substrate. After 30 minutes of incubation in the presence of the IMAP™ beads, the fluorescence polarization was read and the ratio was reported as mP.
(In fluorescence polarisation assays a small probe gives low polarisation when free and higher when bound to something large.)

Series [2] is described as follows: Ocular surface and aqueous humor bioavailability. Format: in vivo, New Zealand White rabbits. The following applies: New Zealand White, rabbit, topical, 30 μl of 1 mM (0.04% w/v) per eye, Compound 14 dosed 1 mM, 1 × 30 uL, 4 eyes. On the procedure:
Dose Formulation and Administration. Compounds 14 (prodrug) and 49 (base compound) were formulated at 0.04% w/v (the equivalent millimolar concentration is 1 mM) in 10 mM phosphate, 0.8% polysorbate 80, 0.85% NaCl, 0.01% BAC, 0.1% EDTA at pH 7.3. Each compound was administered as a 30 μl drop to both eyes of each animal within a dosing group and the ocular and systemic exposure was examined as described in Example 49.
Study sampling. 40 μL of saline was applied to the eyes at 0.083, 1, 2, and 4 hours after administration of each compound and the lavage fluids were collected as samples. Aqueous humor and ocular surface samples were obtained from 2 animals (4 eyes) per dosing group at 0.083, 1, 2, and 4 hours post dosing, by the methods described in Example 49. Ocular surface relates to the surface of the cornea and conjunctiva. Ocular surface residence time is the average time that a compound resides on the ocular surface.

The nature of series [3]: Ocular surface and aqueous humor bioavailability. Format: in vivo, New Zealand White rabbits. The following applies: New Zealand White, rabbit, topical, 30 μl of 1 mM (0.04% w/v) per eye, Compound 14 dosed 1 mM, 1 × 30 uL, 4 eyes, time 0.83 h.
The next series deals with T2, ROCK2 (Homo sapiens, UniProt O75116).
T2 construct: purchased Upstate/Chemicon 14-451
The experiment in a line: Rho kinase inhibition assay (IMAP fluorescence polarization), ROCK2. Format: biochemical. The following applies: 10 μM ATP, 60 min at room temperature. On the procedure:
(Molecular Devices product number R7184) was pre-incubated with a test compound for 5 minutes in buffer containing 10 mM Tris-HCl pH 7.2, 10 mM MgCl2, and 0.1% BSA. Following the pre-incubation, 10 μM ATP was added to initiate the reaction. After 60 minutes at room temperature, Molecular Devices IMAP™ binding solution was added to bind phosphorylated substrate. After 30 minutes of incubation in the presence of the IMAP™ beads, the fluorescence polarization was read and the ratio was reported as mP.
See Tian et al., Arch. Ophthalmol. […] Ophthalmol. Vis. […] Ophthalmol. […] Cytoskel. […] Ophthalmol. Vis. […] Ophthalmol. Vis.

The mark [4] stands for this setting: aqueous humor, read-out: Aqueous Humor concentration of [14], Mean.
Where [5] appears, read: ocular surface (saline lavage fluid), read-out: Ocular Surface concentration of [14], Mean.

What is called IC50 is the point on the concentration scale where inhibition reaches its midpoint.

Where two headings read alike, the source gives them in different places.

T1 sequence (Q13464 whole entry): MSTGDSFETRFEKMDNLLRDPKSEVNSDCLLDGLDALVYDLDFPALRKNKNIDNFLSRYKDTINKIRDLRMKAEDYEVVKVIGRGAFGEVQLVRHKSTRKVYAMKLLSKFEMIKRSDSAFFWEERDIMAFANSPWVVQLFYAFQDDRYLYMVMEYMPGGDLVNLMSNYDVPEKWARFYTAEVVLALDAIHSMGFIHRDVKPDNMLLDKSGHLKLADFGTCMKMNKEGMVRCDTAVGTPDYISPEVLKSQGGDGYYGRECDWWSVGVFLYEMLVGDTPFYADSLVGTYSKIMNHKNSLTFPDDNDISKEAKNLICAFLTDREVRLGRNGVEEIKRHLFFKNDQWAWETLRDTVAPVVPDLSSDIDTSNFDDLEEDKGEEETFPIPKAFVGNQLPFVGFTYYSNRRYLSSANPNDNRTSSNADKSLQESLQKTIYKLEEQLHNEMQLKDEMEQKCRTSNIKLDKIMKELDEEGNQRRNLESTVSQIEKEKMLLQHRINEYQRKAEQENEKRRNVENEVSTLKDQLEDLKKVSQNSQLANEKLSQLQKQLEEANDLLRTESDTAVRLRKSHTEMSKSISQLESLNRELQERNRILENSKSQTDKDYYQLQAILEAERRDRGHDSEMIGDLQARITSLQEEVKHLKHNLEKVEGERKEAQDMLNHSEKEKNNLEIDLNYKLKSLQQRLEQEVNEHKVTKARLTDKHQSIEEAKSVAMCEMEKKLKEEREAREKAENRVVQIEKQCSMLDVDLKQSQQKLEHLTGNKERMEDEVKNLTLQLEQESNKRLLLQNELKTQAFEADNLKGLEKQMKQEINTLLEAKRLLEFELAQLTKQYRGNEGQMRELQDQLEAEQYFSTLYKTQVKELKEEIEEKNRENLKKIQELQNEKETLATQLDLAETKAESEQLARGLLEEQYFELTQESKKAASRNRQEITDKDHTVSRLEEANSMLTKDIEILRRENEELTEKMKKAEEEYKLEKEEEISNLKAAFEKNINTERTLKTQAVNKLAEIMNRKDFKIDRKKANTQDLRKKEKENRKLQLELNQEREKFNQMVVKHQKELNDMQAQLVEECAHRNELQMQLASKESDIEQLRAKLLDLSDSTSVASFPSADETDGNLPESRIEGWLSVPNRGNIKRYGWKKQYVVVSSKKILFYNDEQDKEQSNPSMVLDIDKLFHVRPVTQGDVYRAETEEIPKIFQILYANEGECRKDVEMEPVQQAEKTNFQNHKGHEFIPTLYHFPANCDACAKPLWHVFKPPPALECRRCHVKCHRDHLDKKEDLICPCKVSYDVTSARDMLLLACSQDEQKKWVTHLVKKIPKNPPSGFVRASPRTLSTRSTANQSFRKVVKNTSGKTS
T2 sequence (O75116 whole entry): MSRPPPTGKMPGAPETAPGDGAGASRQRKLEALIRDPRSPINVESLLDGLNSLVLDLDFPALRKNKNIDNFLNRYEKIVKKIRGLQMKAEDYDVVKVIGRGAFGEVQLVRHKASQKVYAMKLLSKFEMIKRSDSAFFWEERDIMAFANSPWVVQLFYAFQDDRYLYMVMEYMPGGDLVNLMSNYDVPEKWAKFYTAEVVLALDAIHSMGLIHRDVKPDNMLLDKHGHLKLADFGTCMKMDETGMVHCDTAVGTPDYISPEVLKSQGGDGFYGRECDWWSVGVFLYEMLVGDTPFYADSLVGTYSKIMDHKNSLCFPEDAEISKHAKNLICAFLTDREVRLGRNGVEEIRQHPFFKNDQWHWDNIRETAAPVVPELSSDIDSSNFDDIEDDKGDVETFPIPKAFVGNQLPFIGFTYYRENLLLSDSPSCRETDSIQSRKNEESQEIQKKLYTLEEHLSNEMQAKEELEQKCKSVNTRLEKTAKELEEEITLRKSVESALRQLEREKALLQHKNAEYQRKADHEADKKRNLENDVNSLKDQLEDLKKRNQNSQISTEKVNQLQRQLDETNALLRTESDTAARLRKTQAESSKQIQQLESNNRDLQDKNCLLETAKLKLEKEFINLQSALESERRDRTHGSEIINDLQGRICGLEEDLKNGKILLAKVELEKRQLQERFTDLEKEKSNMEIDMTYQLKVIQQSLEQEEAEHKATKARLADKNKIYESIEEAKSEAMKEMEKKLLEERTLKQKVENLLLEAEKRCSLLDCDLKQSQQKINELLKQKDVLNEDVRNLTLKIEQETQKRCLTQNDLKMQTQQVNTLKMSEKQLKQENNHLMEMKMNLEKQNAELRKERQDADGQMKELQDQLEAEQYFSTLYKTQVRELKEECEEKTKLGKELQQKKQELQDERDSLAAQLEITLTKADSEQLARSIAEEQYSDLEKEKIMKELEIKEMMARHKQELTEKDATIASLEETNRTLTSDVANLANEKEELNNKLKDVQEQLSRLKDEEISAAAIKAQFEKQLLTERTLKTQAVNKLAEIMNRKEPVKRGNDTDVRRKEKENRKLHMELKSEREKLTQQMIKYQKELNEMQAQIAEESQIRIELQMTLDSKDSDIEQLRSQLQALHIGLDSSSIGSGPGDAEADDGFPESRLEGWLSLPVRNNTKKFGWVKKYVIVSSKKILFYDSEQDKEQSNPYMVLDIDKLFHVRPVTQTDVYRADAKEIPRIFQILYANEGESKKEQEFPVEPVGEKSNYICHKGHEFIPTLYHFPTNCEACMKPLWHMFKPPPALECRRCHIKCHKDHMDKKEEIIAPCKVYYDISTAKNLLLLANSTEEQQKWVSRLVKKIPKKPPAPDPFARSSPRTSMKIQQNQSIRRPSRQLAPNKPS

Turning to `Cc1ccc(CN2CC[C@@H](Nc3cccc4cnccc34)C2)cc1OCCOC(=O)c1ccccc1` [Compound 14, 2-(5-(((R)-3-isoquinolin-5-ylamino)pyrrolidin-1-yl)methyl)-2-methylphenoxy)ethyl benzoate], in series [1], the “Ocular discomfort (composite score) versus parent compound” value was “reduced level of discomfort compared to the parent compound”. Further, the 50% inhibitory concentration (IC50) amounted to 2460 nM at ROCK1 and 717 nM on ROCK2. Moreover, the concentration at 1 h in series [2] (setting [4]) was 0 µM; in series [2] (setting [5]) it was 3.08 µM. Further, the concentration at 2 h was 0 µM in series [2] (setting [4]) and 0.245 µM in series [2] (setting [5]). Moreover, the concentration at 4 h in series [2] (setting [4]) and in series [2] (setting [5]) was 0 nM each time. In addition, the concentration at […] was 0 µM in series [3] (setting [4]) and 24.3 µM in series [3] (setting [5]).

The values above are taken from patent US20130131059A1, “METHOD FOR TREATING OPHTHALMIC DISEASES USING KINASE INHIBITOR COMPOUNDS IN PRODRUG FORMS” (INSPIRE PHARMACEUTICALS, INC., priority 2010, published 2013).
